The values that follow come from US20240199587A1, “HETEROCYCLIC COMPOUNDS” (Hoffmann-La Roche Inc., priority 2021, published 2024).

Molecules are shown by their SMILES.

The target of the experiment is T1, MAGL (Homo sapiens, UniProt Q99685).
T1 sequence (Q99685 1-303): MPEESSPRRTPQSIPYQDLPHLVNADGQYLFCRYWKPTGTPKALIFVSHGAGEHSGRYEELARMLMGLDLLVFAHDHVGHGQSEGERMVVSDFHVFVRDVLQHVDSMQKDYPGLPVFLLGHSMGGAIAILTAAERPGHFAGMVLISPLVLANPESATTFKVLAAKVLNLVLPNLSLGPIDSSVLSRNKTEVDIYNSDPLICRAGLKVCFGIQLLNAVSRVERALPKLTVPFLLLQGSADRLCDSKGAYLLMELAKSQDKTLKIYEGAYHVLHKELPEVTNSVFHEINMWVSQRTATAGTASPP
Kind of experiment: 2-AG assay (MAGL inhibitory activity, hydrolysis of 2-arachidonoylglycerol to arachidonic acid followed by mass spectrometry). The class given is biochemical. The note with it: 8 μM 2-arachidonoylglycerol, 15 min pre-incubation, 30 min incubation at RT, RapidFire MS readout. The method in brief:
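Human MAGL ([…] final) pre-incubated 15 min at RT with compound in 50 mM TRIS, 1 mM EDTA, 0.01% Tween-20, 2.5% DMSO; 8 μM 2-AG then added for 30 min at RT. Acetonitrile quench with d8-arachidonic acid; arachidonic acid measured by RapidFire SPE–MS/MS, activity from arachidonic acid/d8 ratio.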
In turn, `O=C(N1CC(C23CC(c4nnc(C5CC5)o4)(C2)C3)C1)N1CC2(CC(n3cnc(C4CC4)n3)C2)C1` [Example 436, [3-[3-(5-cyclopropyl-1,3,4-oxadiazol-2-yl)-1-bicyclo[1.1.1]pentanyl]azetidin-1-yl]-[6-(3-cyclopropyl-1,2,4-triazol-1-yl)-2-azaspiro[3.3]heptan-2-yl]methanone] had an IC50 of 9.82 nM.
To `O=C(N1CC2(CC(n3cnc(C4CC4)n3)C2)C1)N1CC2(CCN(Cc3cnc(C(F)(F)F)cn3)C2)C1` [Example 437] belongs 6.37 nM.
Under `O=C(N1CC2(CC(n3cnc(C4CC4)n3)C2)C1)N1CC2(CCN(Cc3ccc(C(F)(F)F)nn3)C2)C1` [Example 438, [6-(3-cyclopropyl-1,2,4-triazol-1-yl)-2-azaspiro[3.3]heptan-2-yl]-[7-[[6-(trifluoromethyl)pyridazin-3-yl]methyl]-2,7-diazaspiro[3.4]octan-2-yl]methanone] stands 14.9 nM.
To `O=C(N1CC2(CC(n3cnc(C4CC4)n3)C2)C1)N1CC2(CCN(Cc3ccc(C(F)(F)F)cn3)C2)C1` [Example 439, [6-(3-cyclopropyl-1,2,4-triazol-1-yl)-2-azaspiro[3.3]heptan-2-yl]-[7-[[5-(trifluoromethyl)-2-pyridyl]methyl]-2,7-diazaspiro[3.4]octan-2-yl]methanone] belongs 3.74 nM.
Consider `O=C(N1CC(C23CC(CNC4(C(F)(F)F)CC4)(C2)C3)C1)N1CC2(CC(n3cnc(C4CC4)n3)C2)C1` [Example 444, [6-(3-cyclopropyl-1,2,4-triazol-1-yl)-2-azaspiro[3.3]heptan-2-yl]-[3-[3-[[[1-(trifluoromethyl)cyclopropyl]amino]methyl]-1-bicyclo[1.1.1]pentanyl]azetidin-1-yl]methanone], for which the half-maximal inhibitory concentration (IC50) came out at 0.05 nM.
`O=C(N1CC(C23CC(NCC4(C(F)(F)F)CC4)(C2)C3)C1)N1CC2(CC(n3cnc(C4CC4)n3)C2)C1` [Example 445, [6-(3-cyclopropyl-1,2,4-triazol-1-yl)-2-azaspiro[3.3]heptan-2-yl]-[3-[3-[[1-(trifluoromethyl)cyclopropyl]methylamino]-1-bicyclo[1.1.1]pentanyl]azetidin-1-yl]methanone] displayed an IC50 of 0.3 nM.
Under `N=S(=O)(c1ccc(CC2CC3(C2)CN(C(=O)N2CC4(CC(n5cnc(C6CC6)n5)C4)C2)C3)cc1)C(F)(F)F` (stereo not drawn) [Example 446, [6-(3-cyclopropyl-1,2,4-triazol-1-yl)-2-azaspiro[3.3]heptan-2-yl]-[6-[[4-(trifluoromethylsulfonimidoyl)phenyl]methyl]-2-azaspiro[3.3]heptan-2-yl]methanone] stands 0.06 nM.
In turn, `N=S(=O)(c1cccc(CC2CC3(C2)CN(C(=O)N2CC4(CC(n5cnc(C6CC6)n5)C4)C2)C3)c1)C(F)(F)F` (stereo not drawn) [Example 447, [6-(3-cyclopropyl-1,2,4-triazol-1-yl)-2-azaspiro[3.3]heptan-2-yl]−[6-[[3-(trifluoromethylsulfonimidoyl)phenyl]methyl]-2-azaspiro[3.3]heptan-2-yl]methanone] displayed an IC50 of 0.02 nM.
To `CC1(Cc2nnc(-c3ccc(C4CN(C(=O)N5CC6(CC(n7cnc(C8CC8)n7)C6)C5)C4)cc3)[nH]2)CC1` [Example 448, [6-(3-cyclopropyl-1,2,4-triazol-1-yl)-2-azaspiro[3.3]heptan-2-yl]-[3-[4-[5-[(1-methylcyclopropyl)methyl]-4H-1,2,4-triazol-3-yl]phenyl]azetidin-1-yl]methanone] belongs 0.93 nM; to `O=C(N1CC2(CC(n3cnc(C4CC4)n3)C2)C1)N1CC2(CC(n3cnc(C(F)(F)F)n3)C2)C1` [Example 449, [6-(3-cyclopropyl-1,2,4-triazol-1-yl)-2-azaspiro[3.3]heptan-2-yl]-[6-[3-(trifluoromethyl)-1,2,4-triazol-1-yl]-2-azaspiro[3.3]heptan-2-yl]methanone], 1.37 nM; to `O=C(N1CC2(CC(n3cnc(C4CC4)n3)C2)C1)N1CC2(CC(n3ncnc3C3CC3)C2)C1` [Example 450, [6-(3-cyclopropyl-1,2,4-triazol-1-yl)-2-azaspiro[3.3]heptan-2-yl]-[6-(5-cyclopropyl-1,2,4-triazol-1-yl)-2-azaspiro[3.3]heptan-2-yl]methanone], 71.4 nM.
Under `COc1cc(C(F)(F)F)ccc1CNC1CN(C(=O)N2CC3(CC(n4cnc(C(F)(F)F)n4)C3)C2)C1` [Example 451, [3-[[2-methoxy-4-(trifluoromethyl)phenyl]methylamino]azetidin-1-yl]-[6-[3-(trifluoromethyl)-1,2,4-triazol-1-yl]-2-azaspiro[3.3]heptan-2-yl]methanone] stands 31.7 nM; under `O=C(N1CC(c2ccc(N3CC(O)(C(F)(F)F)C3)nc2)C1)N1CC2(CC(n3cnc(C(F)(F)F)n3)C2)C1` [Example 452, [3-[6-[3-hydroxy-3-(trifluoromethyl)azetidin-1-yl]-3-pyridyl]azetidin-1-yl]-[6-[3-(trifluoromethyl)-1,2,4-triazol-1-yl]-2-azaspiro[3.3]heptan-2-yl]methanone], 3.69 nM; under `CC1(O)CN(c2ccc(C3CN(C(=O)N4CC5(CC(n6cnc(C(F)(F)F)n6)C5)C4)C3)cn2)C1` [Example 453, [3-[6-(3-hydroxy-3-methyl-azetidin-1-yl)-3-pyridyl]azetidin-1-yl]-[6-[3-(trifluoromethyl)-1,2,4-triazol-1-yl]-2-azaspiro[3.3]heptan-2-yl]methanone], 39.4 nM.
Under `O=C(N1CC2(CC(NS(=O)(=O)c3cccc(C(F)(F)F)c3)C2)C1)N1CC2(CC(n3cnc(C(F)(F)F)n3)C2)C1` [Example 454, 3-(trifluoromethyl)-N-[2-[6-[3-(trifluoromethyl)-1,2,4-triazol-1-yl]-2-azaspiro[3.3]heptane-2-carbonyl]-2-azaspiro[3.3]heptan-6-yl]benzenesulfonamide] stands 0.71 nM.
As for `CS(=O)(=O)c1ccc(CC2CC3(C2)CN(C(=O)N2CC4(CC(n5cnc(C(F)(F)F)n5)C4)C2)C3)cc1` [Example 455, [6-[(4-methylsulfonylphenyl)methyl]-2-azaspiro[3.3]heptan-2-yl]-[6-[3-(trifluoromethyl)-1,2,4-triazol-1-yl]-2-azaspiro[3.3]heptan-2-yl]methanone], the midpoint of inhibition, the IC50, lay at 1.25 nM.
Under `CS(=O)(=O)c1cccc(CC2CC3(C2)CN(C(=O)N2CC4(CC(n5cnc(C(F)(F)F)n5)C4)C2)C3)c1` [Example 456, [6-[(3-methylsulfonylphenyl)methyl]-2-azaspiro[3.3]heptan-2-yl]-[6-[3-(trifluoromethyl)-1,2,4-triazol-1-yl]-2-azaspiro[3.3]heptan-2-yl]methanone] stands 1.16 nM; under `CS(=O)(=O)c1cncc(CC2CC3(C2)CN(C(=O)N2CC4(CC(n5cnc(C(F)(F)F)n5)C4)C2)C3)c1` [Example 457, [6-[(5-methylsulfonyl-3-pyridyl)methyl]-2-azaspiro[3.3]heptan-2-yl]-[6-[3-(trifluoromethyl)-1,2,4-triazol-1-yl]-2-azaspiro[3.3]heptan-2-yl]methanone], 11 nM; under `CS(=O)(=O)c1ccc(CC2CC3(C2)CN(C(=O)N2CC4(CC(n5cnc(C(F)(F)F)n5)C4)C2)C3)nc1` [Example 458, [6-[(5-methylsulfonyl-2-pyridyl)methyl]-2-azaspiro[3.3]heptan-2-yl]-[6-[3-(trifluoromethyl)-1,2,4-triazol-1-yl]-2-azaspiro[3.3]heptan-2-yl]methanone], 19.4 nM.
To `CS(=O)(=O)c1ccc(CC2CC3(C2)CN(C(=O)N2CC4(CC(n5cnc(C(F)(F)F)n5)C4)C2)C3)c(F)c1` [Example 459, [6-[(2-fluoro-4-methylsulfonyl-phenyl)methyl]-2-azaspiro[3.3]heptan-2-yl]-[6-[3-(trifluoromethyl)-1,2,4-triazol-1-yl]-2-azaspiro[3.3]heptan-2-yl]methanone] belongs 0.3 nM; to `CS(=O)(=O)c1cc(F)cc(CC2CC3(C2)CN(C(=O)N2CC4(CC(n5cnc(C(F)(F)F)n5)C4)C2)C3)c1` [Example 460, [6-[(3-fluoro-5-methylsulfonyl-phenyl)methyl]-2-azaspiro[3.3]heptan-2-yl]-[6-[3-(trifluoromethyl)-1,2,4-triazol-1-yl]-2-azaspiro[3.3]heptan-2-yl]methanone], 0.93 nM; to `CS(=N)(=O)c1cccc(CC2CC3(C2)CN(C(=O)N2CC4(CC(n5cnc(C6CC6)n5)C4)C2)C3)c1` (stereo not drawn) [Example 461, [6-(3-cyclopropyl-1,2,4-triazol-1-yl)-2-azaspiro[3.3]heptan-2-yl]-[6-[[3-(methylsulfonimidoyl)phenyl]methyl]-2-azaspiro[3.3]heptan-2-yl]methanone], 1.79 nM.
To `CS(=N)(=O)c1ccc(CC2CC3(C2)CN(C(=O)N2CC4(CC(n5cnc(C6CC6)n5)C4)C2)C3)cc1` (stereo not drawn) [Example 462, [6-(3-cyclopropyl-1,2,4-triazol-1-yl)-2-azaspiro[3.3]heptan-2-yl]-[6-[[4-(methylsulfonimidoyl)phenyl]methyl]-2-azaspiro[3.3]heptan-2-yl]methanone] belongs 2.94 nM.
Take `O=C(N1CC2(CCN(Cc3ccc(C(F)(F)F)cn3)CC2)C1)N1CC2(CC(n3cnc(C4CC4)n3)C2)C1` [Example 463, [6-(3-cyclopropyl-1,2,4-triazol-1-yl)-2-azaspiro[3.3]heptan-2-yl]-[7-[[5-(trifluoromethyl)-2-pyridyl]methyl]-2,7-diazaspiro[3.5]nonan-2-yl]methanone]: the IC50 was 2.42 nM.

The term IC50 denotes the concentration at which inhibition is half-maximal. Read a high IC50 as a need for much substance.
